Results reported in ChEMBL document CHEMBL1201862, “PubChem BioAssay data set” (2004).
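Briefly, cells in 96-well plates were exposed to five compound concentrations for 48 h, and endpoints were estimated by linear interpolation. Here, GI50 denotes the concentration required for 50% inhibition of growth.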 Calls of active or inactive are those of the source. Rule as the data show it: active = GI50 up to about 1.1 µM and inactive = higher.

Tests used:
Experiment in all cases: DTP human tumour cell line panel, 48 h
DU-145 = system: DU-145
SK-OV-3 = system: SK-OV-3
SK-MEL-5 = system: SK-MEL-5
SN12C = system: SN12C
IGROV-1 = system: IGROV-1
Hs-578T = system: Hs-578T
OVCAR-3 = system: OVCAR-3
A549 = system: A549
UACC-257 = system: UACC-257
PC-3 = system: PC-3
HL-60 = system: HL-60
LOX IMVI = system: LOX IMVI
SNB-19 = system: SNB-19
SR = system: SR
MOLT-4 = system: MOLT-4
SK-MEL-2 = system: SK-MEL-2
T47D = system: T47D
786-0 = system: 786-0
SNB-75 = system: SNB-75
HCT-15 = system: HCT-15

SMILES	GI50 (DU-145)	GI50 (SK-OV-3)	GI50 (SK-MEL-5)	GI50 (SN12C)	GI50 (IGROV-1)	GI50 (Hs-578T)	GI50 (OVCAR-3)	GI50 (A549)	GI50 (UACC-257)	GI50 (PC-3)	GI50 (HL-60)	GI50 (LOX IMVI)	GI50 (SNB-19)	GI50 (SR)	GI50 (MOLT-4)	GI50 (SK-MEL-2)	GI50 (T47D)	GI50 (786-0)	GI50 (SNB-75)	GI50 (HCT-15)
NS(=O)(=O)c1ccc(NC(=S)N/C=C2\C(=O)Nc3ccccc3C2=O)cc1	> 100 µM (inactive)	> 100 µM (inactive)	> 100 µM (inactive)	> 100 µM (inactive)	> 100 µM (inactive)	> 100 µM (inactive)	> 100 µM (inactive)	> 100 µM (inactive)	> 100 µM (inactive)	> 100 µM (inactive)	2.07 µM (inactive)	> 100 µM (inactive)	> 100 µM (inactive)	> 100 µM (inactive)	> 100 µM (inactive)	> 100 µM (inactive)	> 100 µM (inactive)	> 100 µM (inactive)	> 100 µM (inactive)	> 100 µM
CC1(C)C=C(/C=N/Nc2ccc(Br)cc2)C(C#N)=C(O)C1(C#N)C#N	66.7 µM (inactive)	57.8 µM (inactive)	> 100 µM (inactive)	59.8 µM (inactive)	81.8 µM (inactive)	63.8 µM (inactive)	31.9 µM (inactive)	39.2 µM (inactive)	31.8 µM (inactive)	21.2 µM (inactive)	26.1 µM (inactive)	64.6 µM (inactive)	> 100 µM (inactive)	26.4 µM (inactive)	29.2 µM (inactive)		40.9 µM (inactive)	47.2 µM (inactive)	66.4 µM (inactive)	
NC(=O)C(c1ccccc1)N1OC2C(=O)N(c3ccccc3)C(=O)C2C1c1c2ccccc2c(Cl)c2ccccc12 (stereo not drawn)	> 100 µM (inactive)	> 100 µM (inactive)	> 100 µM (inactive)	> 100 µM (inactive)	> 100 µM (inactive)	> 100 µM (inactive)	> 100 µM (inactive)	> 100 µM (inactive)		> 100 µM (inactive)	> 100 µM (inactive)	> 100 µM (inactive)	> 100 µM (inactive)	> 100 µM (inactive)	> 100 µM (inactive)	> 100 µM (inactive)	> 100 µM (inactive)	> 100 µM (inactive)	> 100 µM (inactive)	> 100 µM
COc1ccc(/N=C(/SS/C(=N/c2ccc(OC)cc2)c2ccc([N+](=O)[O-])o2)c2ccc([N+](=O)[O-])o2)cc1	1.41 µM (inactive)	2.79 µM (inactive)	5.75 µM (inactive)	1.95 µM (inactive)	1.75 µM (inactive)	2.19 µM (inactive)	0.624 µM (active)	2.79 µM (inactive)	2.06 µM (inactive)	0.838 µM (active)	1.69 µM (inactive)	1.78 µM (inactive)	1.38 µM (inactive)	0.547 µM (active)	4.08 µM (inactive)	2.08 µM (inactive)	1.61 µM (inactive)	0.719 µM (active)	1.27 µM (inactive)	0.489 µM
COC(=O)c1cc2ccc(OC(C)=O)c(OC(C)=O)c2cn1	24.7 µM (inactive)	19.4 µM (inactive)	16.1 µM (inactive)	3.11 µM (inactive)	18.6 µM (inactive)	> 10 µM (inactive)	13 µM (inactive)	21.2 µM (inactive)	14.4 µM (inactive)	20.7 µM (inactive)	2.72 µM (inactive)	1.42 µM (inactive)	> 10 µM (inactive)	2.65 µM (inactive)	4.12 µM (inactive)	18.3 µM (inactive)	> 10 µM (inactive)	18.5 µM (inactive)	20 µM (inactive)	20.4 µM
CCOC(=O)c1nc2ccc(C(F)(F)F)cc2nc1Oc1ccc(C#N)cc1	18.5 µM (inactive)	15.7 µM (inactive)	38.3 µM (inactive)		14.5 µM (inactive)	14.3 µM (inactive)			25.5 µM (inactive)	17.3 µM (inactive)	> 100 µM (inactive)	39.6 µM (inactive)	17.7 µM (inactive)	81.5 µM (inactive)	> 100 µM (inactive)	15.7 µM (inactive)	28.4 µM (inactive)	18 µM (inactive)	14.5 µM (inactive)	38.4 µM
O=CN(CCN1CCCC1)C1CCc2cc(Cl)c(Cl)cc2C1 (stereo not drawn)	34.7 µM (inactive)	0.714 µM (active)	27.2 µM (inactive)	11 µM (inactive)	22.1 µM (inactive)	13.6 µM (inactive)	12.3 µM (inactive)	7.71 µM (inactive)	15.2 µM (inactive)	11.4 µM (inactive)	19.2 µM (inactive)	14 µM (inactive)	0.851 µM (active)	23.9 µM (inactive)	24.4 µM (inactive)		11.1 µM (inactive)	7.55 µM (inactive)		15.8 µM
CCOP(=O)(OCC)C(C)(CC)NC1=NC(C(F)(F)F)(C(F)(F)F)NC(=O)N1 (stereo not drawn)	> 100 µM (inactive)	> 100 µM (inactive)	> 100 µM (inactive)	> 100 µM (inactive)	70.1 µM (inactive)	29.8 µM (inactive)	> 100 µM (inactive)	> 100 µM (inactive)	> 100 µM (inactive)	> 100 µM (inactive)	> 100 µM (inactive)	> 100 µM (inactive)	> 100 µM (inactive)	> 100 µM (inactive)	> 100 µM (inactive)	> 100 µM (inactive)	82 µM (inactive)	> 100 µM (inactive)	> 100 µM (inactive)	> 100 µM
C=CCC(C(=O)Nc1cccc2nc[nH]c12)C(=O)OCC (stereo not drawn)	> 100 µM (inactive)	> 100 µM (inactive)		> 100 µM (inactive)	> 100 µM (inactive)	> 100 µM (inactive)	> 100 µM (inactive)	> 100 µM (inactive)	> 100 µM (inactive)	> 100 µM (inactive)	33.2 µM (inactive)	> 100 µM (inactive)	> 100 µM (inactive)	> 100 µM (inactive)	> 100 µM (inactive)	> 100 µM (inactive)	> 100 µM (inactive)	> 100 µM (inactive)	> 100 µM (inactive)	> 100 µM
CC(C)C(N)(C(=O)O)c1ccccc1 (stereo not drawn)	> 100 µM (inactive)	> 100 µM (inactive)	> 100 µM (inactive)	> 100 µM (inactive)	> 100 µM (inactive)	> 100 µM (inactive)	> 100 µM (inactive)	> 100 µM (inactive)	> 100 µM (inactive)	> 100 µM (inactive)	> 100 µM (inactive)	> 100 µM (inactive)	> 100 µM (inactive)	> 100 µM (inactive)		> 100 µM (inactive)	> 100 µM (inactive)	> 100 µM (inactive)	> 100 µM (inactive)	> 100 µM
COC(=O)C1OC(O[C@H]2CC[C@]3(C)[C@H]4CC=C5[C@@H]6CC(C)(C)CC[C@]6(C(=O)OC)CC[C@@]5(C)[C@]4(C)CC[C@H]3C2(C)C)C(O)C(O)C1O (stereo partly drawn)	14.5 µM (inactive)	20.2 µM (inactive)	18.2 µM (inactive)	13.1 µM (inactive)	18 µM (inactive)	19.9 µM (inactive)	4.34 µM (inactive)	7.14 µM (inactive)	19.5 µM (inactive)	15.1 µM (inactive)	18.1 µM (inactive)	6.67 µM (inactive)	15.2 µM (inactive)	3.72 µM (inactive)	11.4 µM (inactive)	17.3 µM (inactive)	19.7 µM (inactive)	6.73 µM (inactive)	17.1 µM (inactive)	13.9 µM
Cc1cccc(-c2cccc(COCc3cccc(-c4cccc(CO)n4)n3)n2)n1	> 50 µM (inactive)	> 50 µM (inactive)	11.7 µM (inactive)	> 50 µM (inactive)	13 µM (inactive)	35.7 µM (inactive)	3.7 µM (inactive)	> 50 µM (inactive)	12.8 µM (inactive)	18.5 µM (inactive)	8.28 µM (inactive)	> 50 µM (inactive)	> 50 µM (inactive)	> 50 µM (inactive)	4.41 µM (inactive)	> 50 µM (inactive)	31.2 µM (inactive)	38.5 µM (inactive)	> 50 µM (inactive)	35.2 µM
Nc1ccccc1C(=O)CC1OC(=O)c2ccccc21 (stereo not drawn)	51.4 µM (inactive)	> 100 µM (inactive)		> 100 µM (inactive)	> 100 µM (inactive)	46.8 µM (inactive)	78.3 µM (inactive)	65.6 µM (inactive)	> 100 µM (inactive)	41.7 µM (inactive)	> 100 µM (inactive)	52.8 µM (inactive)	42.1 µM (inactive)	46.5 µM (inactive)	> 100 µM (inactive)	14 µM (inactive)	81.8 µM (inactive)	88.5 µM (inactive)	23 µM (inactive)	86.5 µM
NP1(Oc2ccc(F)cc2)=NP(N)(Oc2ccc(F)cc2)=NP(Oc2ccc(F)cc2)(Oc2ccc(F)cc2)=N1 (stereo not drawn)	7.52 µM (inactive)	14.2 µM (inactive)	4.91 µM (inactive)	6.18 µM (inactive)	2.54 µM (inactive)	5.64 µM (inactive)	4.68 µM (inactive)	3.99 µM (inactive)	12.3 µM (inactive)	4.85 µM (inactive)	5.09 µM (inactive)	6.84 µM (inactive)	10.9 µM (inactive)	4.56 µM (inactive)	3.37 µM (inactive)		2.4 µM (inactive)	11 µM (inactive)	3.67 µM (inactive)	3.81 µM
